According to patent US8956878B2, “Polypeptides with affinity for heat shock proteins (HSPS) and HSP associated complexes (HACS) and their use in diagnosis and therapy” (Atlantic Cancer Research Institute, priority 2011, dated 2015):
Like-named read-outs stand apart in the source and are kept apart here.

Assays:
[1] = tested on: recombinant A. davidanieli HSP70 (adHSP70); assay type: binding, Arthrobacter davidanieli; settings: for CHIEF complex formation with adHSP70: substance as counter migrant to adHSP70
[2] = biological target: T1, Recombinant Mycobacterium tuberculosis HSP70 (Mycobacterium tuberculosis, UniProt P9WMJ9); assay type: binding; settings: IEF gel, counter migrant
T1 construct: purchased Aalto, Eire

human HSP70 = human HSP70 (Homo sapiens, UniProt P0DMV8); experiment: CHIEF against recombinant human HSP70; assay type: binding; settings: 1 μg HSP70, 15 μg peptide
rat HSP70 = rat HSP70 (Rattus norvegicus, UniProt P0DMW0); experiment: CHIEF against recombinant rat HSP70; assay type: binding; settings: 1 μg HSP70, 15 μg peptide
[3] = tested on: MDA MB231 cytoplasmic and membrane associated proteins; experiment: CHIEF against subcellular fractions of MDA MB231 breast cancer cells; assay type: binding; settings: 80 μg peptide, 10 μg subcellular fraction
Procedure: (§1) Abbreviations: φ=No peptide added at anode; MBPWT1, MBP100-117_WT1 117-134; MBP, MBP100-117; WT1, WT1 117-134. All peptides applied at cathode at a concentration of 80 μg (sic); subcellular fractions applied at cathode at a concentration of 10 μg. The arrowheads in lanes 2, 6, 10 (top), 14 and 18 (top) indicate expected CHIEF complex focusing near the 6.8 pl marker. The arrowheads in lanes 10 (bottom) and 18 (bottom) indicate the appearance of a CHIEF complex focusing near the 7.4 pl marker. The arrowheads in lane 5 and 19 (top and bottom) indicate where there has been cross over of the MBP117-134WT1 peptide into an adjacent lane causing a drive-by or swipe CHIEF complex formation (lane 5, lane 19).
(§2) The example investigates the possibility that the bMBPWT1 peptide binds HSPs directly from cell lysates in a similar manner to when single recombinant HSP was used as a counter ion. Cancer cells are addicted to the overexpression of HSPs to support growth under poor environmental conditions, to facilitate the function of otherwise unstable oncoproteins and the ablation of apoptosis. Most, if not all, cancer cells should provide a rich source of human HSPs to serve as complex forming counter migrants for the MBP peptide co-synthesised with WT1 and SW peptides. […]

[4] = biological target: cytoplasmic recombinant human HSP90 (Homo sapiens, UniProt P07900); experiment: CHIEF against recombinant human HSP90; assay type: binding; settings: IEF gel, counter migrant
[5] = tested on: SKBR3 cytoplasmic proteins; experiment: CHIEF against SKBR3 cytoplasmic proteins; assay type: binding; settings: 7 μg protein per lane
Procedure: MBPWT1 peptide was tested as a counter ion to proteins from breast cancer cell line SKBR3. MBP co-synthesised with survivin peptides were also used as alternative sources of counter ions (FIG. 10).
The increased degree of complex formation observed in FIG. 10 prompted a closer evaluation of MBP co-synthesized with the three chosen survivin peptides 20-28, isoform 3 88-96 and 96-104.

[6] = biological target: glycoprotein 96 (gp96; canine) (Canis lupus familiaris, UniProt P41148); experiment: CHIEF against gp96 (ER isoform of HSP90); assay type: binding; settings: IEF gel, counter migrant
[7] = tested on: Nalm-6 cytoplasmic and membrane associated proteins; experiment: CHIEF against subcellular fractions of Nalm-6 leukemia cells; assay type: binding
Excerpt: as §1, with “All peptides applied at cathode at a concentration of 80 μg (sic); subcellular fractions applied at cathode at a concentration of 10 μg.” left out
Three identical lanes were prepared for the generation of CHIEF complexes between MBP100-117WT1 117-134 (80 μg) and 10 μg of Nalm-6 membrane associated proteins.
as §2

PC3 (prostate cancer) = experiment: Peptide in extracellular medium of PC3 cells; assay type: cell-based; settings: 7-25 μg/mL in extracellular medium, within 24 hours
Procedure: (§3) The alpha helix and flanking sequences may permit the peptides of the application to resist the protease rich medium of cancer cells, a trait shared by human tissue fluids (e.g. serum). […] Since all major cancer causing species rely upon scaffolding by HSPs for stability and function, the peptides may represent a source of direct therapeutic application.
(§4) When the peptides of the present application were included in the extracellular medium of the cancer cell lines (at concentrations of 7-25 μg/mL) such as PC3 (prostate cancer) and MCF7 (breast cancer), there was an inhibition of the protein synthesis and cell lysis within 24 hours. […] Since all major cancer causing species rely upon scaffolding by HSPs for stability and function, the peptides may represent a source of direct therapeutic application.

MCF7 (breast cancer) = experiment: Peptide in extracellular medium of MCF7 cells; assay type: cell-based; settings: 7-25 μg/mL in extracellular medium, within 24 hours
Procedure: as §3, §4

[8] = tested on: vesicular material from culture medium or biological fluid; experiment: Fractionation of vesicular material; settings: as second peptide portion of the polypeptide
Excerpt: (§5) In another embodiment, the at least one second peptide portion contributes to the selectivity of the affinity of the polypeptide.

[9] = tested on: HACs from sub-cellular extracts; experiment: Fractionation of HACs from sub-cellular extracts; settings: as second peptide portion of the polypeptide
Excerpt: as §5

Recombinant murine HSP70 = Recombinant murine HSP70 (Mus musculus, UniProt Q61696); experiment: CHIEF against recombinant murine HSP70; assay type: binding; settings: 40 μg peptide
Chain of Recombinant murine HSP70 (Q61696 whole entry): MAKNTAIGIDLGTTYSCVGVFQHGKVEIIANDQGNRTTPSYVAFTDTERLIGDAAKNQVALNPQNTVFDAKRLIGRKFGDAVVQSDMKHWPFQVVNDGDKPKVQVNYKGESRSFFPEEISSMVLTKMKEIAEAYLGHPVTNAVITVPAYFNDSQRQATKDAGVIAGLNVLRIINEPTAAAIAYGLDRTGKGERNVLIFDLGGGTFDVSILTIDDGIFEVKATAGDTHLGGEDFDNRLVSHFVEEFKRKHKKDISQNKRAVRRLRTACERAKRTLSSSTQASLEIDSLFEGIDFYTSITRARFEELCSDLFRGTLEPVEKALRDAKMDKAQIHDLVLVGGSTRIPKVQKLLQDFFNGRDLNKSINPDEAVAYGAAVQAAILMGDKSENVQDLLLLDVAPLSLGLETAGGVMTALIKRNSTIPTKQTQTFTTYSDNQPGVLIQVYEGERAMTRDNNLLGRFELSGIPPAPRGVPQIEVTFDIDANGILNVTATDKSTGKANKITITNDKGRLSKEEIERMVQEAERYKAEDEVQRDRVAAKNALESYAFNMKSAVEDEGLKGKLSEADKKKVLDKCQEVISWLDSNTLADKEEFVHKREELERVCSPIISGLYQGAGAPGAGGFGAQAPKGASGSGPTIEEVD

T1 sequence (P9WMJ9 whole entry): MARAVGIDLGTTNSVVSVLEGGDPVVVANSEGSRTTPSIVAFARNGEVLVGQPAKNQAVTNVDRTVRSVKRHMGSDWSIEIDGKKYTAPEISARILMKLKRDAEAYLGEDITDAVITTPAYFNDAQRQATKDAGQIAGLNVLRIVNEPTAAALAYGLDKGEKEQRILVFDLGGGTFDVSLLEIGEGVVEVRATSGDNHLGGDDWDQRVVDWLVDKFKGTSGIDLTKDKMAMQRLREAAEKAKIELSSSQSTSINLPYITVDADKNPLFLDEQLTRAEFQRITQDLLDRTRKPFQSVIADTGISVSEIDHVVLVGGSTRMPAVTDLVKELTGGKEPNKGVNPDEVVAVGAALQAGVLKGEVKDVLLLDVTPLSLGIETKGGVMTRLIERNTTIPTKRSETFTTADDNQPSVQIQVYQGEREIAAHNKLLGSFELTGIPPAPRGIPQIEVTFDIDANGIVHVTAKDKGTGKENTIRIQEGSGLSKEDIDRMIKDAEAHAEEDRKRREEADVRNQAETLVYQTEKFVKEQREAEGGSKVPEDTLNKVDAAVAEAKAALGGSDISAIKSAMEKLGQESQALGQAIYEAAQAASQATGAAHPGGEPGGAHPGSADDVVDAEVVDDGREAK
Chain of human HSP70 (P0DMV8 whole entry): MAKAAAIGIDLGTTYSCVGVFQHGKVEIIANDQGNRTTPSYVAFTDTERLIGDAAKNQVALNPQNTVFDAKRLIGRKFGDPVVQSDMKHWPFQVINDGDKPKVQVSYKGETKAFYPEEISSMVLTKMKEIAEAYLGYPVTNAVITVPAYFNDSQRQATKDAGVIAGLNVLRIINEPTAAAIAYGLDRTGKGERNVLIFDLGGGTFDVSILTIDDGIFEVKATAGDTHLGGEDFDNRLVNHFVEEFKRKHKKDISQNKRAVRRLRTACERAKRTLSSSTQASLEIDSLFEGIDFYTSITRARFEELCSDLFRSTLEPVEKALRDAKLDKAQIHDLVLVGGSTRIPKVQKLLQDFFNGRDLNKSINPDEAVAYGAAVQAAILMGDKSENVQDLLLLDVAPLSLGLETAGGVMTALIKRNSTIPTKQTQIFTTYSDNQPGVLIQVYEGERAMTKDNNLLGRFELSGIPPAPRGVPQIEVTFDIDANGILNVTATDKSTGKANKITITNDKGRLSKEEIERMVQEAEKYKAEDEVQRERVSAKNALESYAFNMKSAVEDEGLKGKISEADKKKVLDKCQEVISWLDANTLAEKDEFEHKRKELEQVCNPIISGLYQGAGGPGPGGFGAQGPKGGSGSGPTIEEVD
Chain of glycoprotein 96 (gp96; canine) (P41148 22-804): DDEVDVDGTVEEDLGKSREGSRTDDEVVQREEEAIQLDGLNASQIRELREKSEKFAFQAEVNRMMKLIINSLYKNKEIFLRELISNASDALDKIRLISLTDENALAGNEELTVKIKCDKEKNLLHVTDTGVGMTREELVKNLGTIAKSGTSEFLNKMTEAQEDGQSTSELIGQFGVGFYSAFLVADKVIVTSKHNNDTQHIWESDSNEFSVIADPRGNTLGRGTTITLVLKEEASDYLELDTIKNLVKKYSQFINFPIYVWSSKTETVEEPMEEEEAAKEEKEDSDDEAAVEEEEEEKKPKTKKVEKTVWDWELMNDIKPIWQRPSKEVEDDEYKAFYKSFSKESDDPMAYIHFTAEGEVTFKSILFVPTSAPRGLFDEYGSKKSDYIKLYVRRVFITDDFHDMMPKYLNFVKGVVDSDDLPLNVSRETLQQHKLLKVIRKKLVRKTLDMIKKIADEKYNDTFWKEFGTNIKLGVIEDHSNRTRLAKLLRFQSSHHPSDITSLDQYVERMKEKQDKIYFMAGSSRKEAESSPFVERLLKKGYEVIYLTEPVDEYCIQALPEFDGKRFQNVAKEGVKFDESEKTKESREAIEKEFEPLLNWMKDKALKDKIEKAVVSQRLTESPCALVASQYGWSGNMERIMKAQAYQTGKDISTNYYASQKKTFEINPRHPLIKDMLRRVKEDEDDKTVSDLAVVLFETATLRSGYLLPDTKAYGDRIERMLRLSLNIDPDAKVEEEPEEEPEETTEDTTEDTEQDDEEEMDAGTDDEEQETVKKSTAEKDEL
Chain of rat HSP70 (P0DMW0 whole entry): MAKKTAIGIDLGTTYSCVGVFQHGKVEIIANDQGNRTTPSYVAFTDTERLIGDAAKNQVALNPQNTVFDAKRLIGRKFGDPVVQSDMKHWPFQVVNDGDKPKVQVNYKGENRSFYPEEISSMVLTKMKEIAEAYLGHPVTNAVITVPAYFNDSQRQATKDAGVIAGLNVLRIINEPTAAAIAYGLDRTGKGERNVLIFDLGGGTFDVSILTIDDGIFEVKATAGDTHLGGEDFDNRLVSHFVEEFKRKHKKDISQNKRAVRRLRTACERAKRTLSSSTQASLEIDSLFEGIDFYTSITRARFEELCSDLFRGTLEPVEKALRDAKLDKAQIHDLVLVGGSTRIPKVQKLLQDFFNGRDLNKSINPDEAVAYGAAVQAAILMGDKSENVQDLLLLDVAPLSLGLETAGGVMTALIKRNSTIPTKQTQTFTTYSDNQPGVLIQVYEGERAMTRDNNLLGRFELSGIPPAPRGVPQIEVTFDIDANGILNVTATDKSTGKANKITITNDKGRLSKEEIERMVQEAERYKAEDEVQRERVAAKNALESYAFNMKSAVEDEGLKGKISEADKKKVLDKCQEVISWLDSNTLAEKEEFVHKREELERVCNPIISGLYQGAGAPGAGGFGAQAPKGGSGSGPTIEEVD

lysozyme
CHIEF complex formation with adHSP70 ([1]; IEF gel): did bind
CHIEF complex formation with M. tuberculosis HSP70 [2]: complexed

myoglobin
CHIEF complex formation with adHSP70 ([1]; IEF gel): did not interact

MBPWT1: MBP peptide 100-117 co-synthesised with Wilms tumor protein 1 peptide 117-134 (PSQGKGRGLSLSRFSWGAPSQASSGQARMFPNAPYL)
CHIEF complex formation with human HSP70 (human HSP70): Some evidence of counter migrant complex formation
CHIEF complex formation with rat HSP70 (rat HSP70): Some evidence of counter migrant complex formation
CHIEF complex formation with adHSP70 ([1]; IEF gel): appeared to augment the formation of the complex
CHIEF complex formation with MDA MB231 cytoplasmic proteins [3]: yielded similar CHIEF complexes
CHIEF complex formation with human HSP90 [4]: produced complexes
CHIEF complex formation with SKBR3 proteins [5]: Small counter migrant complexes formed
CHIEF complex formation with gp96 [6]: produced complexes
CHIEF complex formation with Nalm-6 cytoplasmic proteins ([7]; 80 μg peptide, 10 μg subcellular fraction): yielded similar CHIEF complexes
CHIEF complex formation with Nalm-6 proteins at lower peptide amount ([7]; concentrations below 80 μg): occasionally produced only modest complexes

histone 2A
CHIEF complex formation with adHSP70 ([1]; IEF gel): yielded an identical complex

PSQGKGRGLSLSRFSWGALRRKCAVPS [SEQ ID NO: 66]
effect on protein synthesis and cell lysis, PC3 (PC3 (prostate cancer)): drastic inhibition of protein synthesis and cell lysis
CHIEF complex formation with SKBR3 proteins [5]: much larger band formed
effect on protein synthesis and cell lysis, MCF7 (MCF7 (breast cancer)): drastic inhibition of protein synthesis and cell lysis

LTLGEFLKL (listed as Homo sapiens) [SEQ ID NO: 8]
efficiency of fractionating vesicular material [8]: more efficient

LRRKCAVPS (listed as Homo sapiens) [SEQ ID NO: 9]
efficiency of fractionating HACs from sub-cellular extracts [9]: more efficiently fractionated

trypsinogen
CHIEF complex formation with adHSP70 ([1]; IEF gel): did not interact

carbonic anhydrase
CHIEF complex formation with adHSP70 ([1]; IEF gel): did not interact

WT1 117-134: Wilms tumor protein 1 peptide 117-134 (PSQASSGQARMFPNAPYL) [reference compound]
CHIEF complex formation with adHSP70 ([1]; IEF gel): no evidence of binding
CHIEF complex formation with adHSP70 ([1]; IEF gel, listed as WT1): limited complex formation

PSQGKGRGLSLSRFSWGA (listed as Bos taurus) [SEQ ID NO: 2]
effect of high peptide concentration on complex formation with adHSP70 ([1]; 100 μg peptide, 2 μg adHSP70): appears to inhibit complex formation
CHIEF complex formation with adHSP70 ([1]; IEF gel, listed as 100-117): produced counter ion complexes
CHIEF complex formation with adHSP70 ([1]; IEF gel, listed as MBP 100-117): binding
CHIEF complex formation with adHSP70 ([1]; IEF gel, listed as MBP peptide): far more limited complex formation
CHIEF complex formation with murine HSP70 (Recombinant murine HSP70): complexed
CHIEF complex formation with M. tuberculosis HSP70 ([2]; listed as 100-117): produced counter ion complexes
CHIEF complex formation with M. tuberculosis HSP70 ([2]; listed as MBP peptide): counter migrant complex formed

MBP 62-78: candidate binding peptide, residues 62-78 of bovine myelin basic protein (ARTTHYGSLPQKAQGHR)
CHIEF complex formation with adHSP70 ([1]; IEF gel): negligible binding

B1: Bovine myelin basic protein (protein)
chain: AAQKRPSQRSKYLASASTMDHARHGFLPRHRDTGILDSLGRFFGSDRGAPKRGSGKDGHHAARTTHYGSLPQKAQGHRPQDENPVVHFFKNIVTPRTPPPSQGKGRGLSLSRFSWGAEGQKPGFGYGGRASDYKSAHKGLKGHDAQGTLSKIFKLGGRDSRSGSPMARR
focusing position (pI marker) of CHIEF complex with adHSP70 ([1]; IEF gel): ~6.5
CHIEF complex formation with adHSP70 ([1]; IEF gel): bound
CHIEF complex formation with adHSP70 ([1]; IEF gel, listed as MBP): binding
CHIEF complex formation with M. tuberculosis HSP70 [2]: complexed
